Results taken from patent US20240209389A1, “PLANT HAVING ENHANCED RESISTANCE AGAINST COLORADO POTATO BEETLE AND METHOD FOR PRODUCING SAME, AND METHOD FOR EVALUATING RESISTANCE AGAINST COLORADO POTATO BEETLE IN PLANT” (KANEKA CORPORATION, priority 2020, published 2024).

Tests used:
[1] = tested on: Sc23DOX; assay: Detection of in vitro enzyme activity of 23DOX (LC-MS of reaction product); assay type: biochemical, S. chacoense; details: 50 μM substrate, crude extraction fraction of E. coli expressing Sc23DOX, 2-oxoglutaric acid, sodium ascorbate, FeSO4, pH 7.2
Experimental: (§1) First, in order to synthesize 23DOX in E. coli, the S123DOX gene and the Sc23DOX gene were each linked to a pCold ProS2 vector (manufactured by Takara Bio Inc.), and were introduced into E. coli BL21 (DE3). The obtained recombinant E. coli was cultured at 37° C. until the OD600 value reached 0.5, was cooled to 15° C., and was left to stand for 30 minutes. IPTG was added thereto so that the final concentration reached 0.1 mM, and the mixture was cultured under shaking at 15° C. for 24 hours, to induce expression of the recombinant protein.
(§2) Then, the E. coli bodies whose expression was induced were collected, and were suspended in a sonication buffer [50 mM Bis-Tris-HCl (pH 7.0), 150 mM NaCl, 1 mM dithiothreitol, 10% glycerol]. After an ultrasonic crushing machine was used to crush bacterial cells, the mixture was subjected to centrifugal separation, and crude extraction fractions were obtained from the supernatant. A 100 mM Bis-Tris-HCl solution (pH 7.2, containing 5 mM 2-oxoglutaric acid, 10 mM sodium ascorbate, and 200 μM FeSO4) containing a 50 μM substrate was added to the mixture, and was allowed to react.
(§3) The obtained reaction product was analyzed through LC-MS (manufactured by Waters, product name: UPLC-ESI-MS ACQUITY). As the column, ACQUITY HSS T3 1.8 μm φ 2.1×100 mm (manufactured by Waters) was used. […]

[2] = tested on: S123DOX; assay: as above; assay type: biochemical, S. lycopersicum; details: 50 μM substrate, crude extraction fraction of E. coli expressing S123DOX, 2-oxoglutaric acid, sodium ascorbate, FeSO4, pH 7.2
Experimental: as §1, §2, §3

[3] = tested on: Sc23ACT; assay: Detection of in vitro enzyme activity of 23ACT (LC-MS of reaction product); assay type: biochemical, S. chacoense; details: 50 μM substrate, crude extraction fraction of E. coli expressing Sc23ACT, 400 μM acetyl CoA, pH 7.2
Experimental: (§4) First, in order to synthesize 23ACT in vitro, the S123ACT gene and the Sc23ACT gene were each linked to a pCold ProS2 (manufactured by Takara Bio Inc.), and were introduced into E. coli BL21 (DE3). The obtained recombinant E. coli was cultured at 37° C. until the OD600 value reached 0.5, was cooled to 15° C., and was left to stand for 30 minutes. IPTG was added thereto so that the final concentration reached 0.1 mM, and the mixture was cultured under shaking at 15° C. for 24 hours, to induce expression of the recombinant protein. Then, the E. coli bodies whose expression was induced were collected, and were suspended in a sonication buffer [50 mM Bis-Tris-HCl (pH 7.0), 150 mM NaCl, 1 mM dithiothreitol, 10% glycerol]. After an ultrasonic crushing machine was used to crush bacterial cells, the mixture was subjected to centrifugal separation, and crude extraction fractions were obtained from the supernatant. A 100 mM Bis-Tris-HCl solution (pH 7.2, containing 400 μM acetyl COA) containing a 50 μM substrate was added to the mixture, and was allowed to react.
(§5) The obtained reaction product was analyzed through LC-MS (manufactured by Waters, product name: UPLC-ESI-MS ACQUITY). As the column, ACQUITY HSS T3 (1.8 μm φ2.1×100 mm) (manufactured by Waters) was used. In LC analysis, gradient elution was performed using a mobile phase (A: 0.1% formic acid water and B: acetonitrile). The gradient elution was performed under the condition: 0 to 30 minutes, 90% A/10% B to 45% A/55% B; 30 to 31 minutes, 45% A/55% B to 100% B; and maintaining for from 31 to 35 minutes, 100% B.

[4] = tested on: S123ACT; assay: as above; assay type: biochemical, S. lycopersicum; details: 50 μM substrate, crude extraction fraction of E. coli expressing S123ACT, 400 μM acetyl CoA, pH 7.2
Experimental: as §4, §5

[5] = tested on: St23ACT; assay: Detection of in vitro enzyme activity of St23ACT (LC-MS of reaction product); assay type: biochemical, S. tuberosum; details: same method as Example 4, crude extraction fraction of E. coli expressing St23ACT
Experimental: as §4
The obtained reaction product was analyzed through LC-MS (manufactured by Waters, product name: UPLC-ESI-MS ACQUITY). As the column, ACQUITY HSS T3 (1.8 μm φ2.1×100 mm) (manufactured by Waters) was used. […]
The St23ACT gene identified in Example 12 was analyzed in the same method described in Example 4. […]

[6] = tested on: St23DOX; assay: Detection of in vitro enzyme activity of St23DOX (LC-MS of reaction product); assay type: biochemical, S. tuberosum; details: same method as Example 3, crude extraction fraction of E. coli expressing St23DOX
Experimental: as §1, §2
The obtained reaction product was analyzed through LC-MS (manufactured by Waters, product name: UPLC-ESI-MS ACQUITY). […]
The St23DOX gene identified in Example 10 was analyzed in the same method described in Example 3. […]

Row | Compound | introduction of a hydroxy group to position 23 of the substrate (reaction product) [1] | introduction of a hydroxy group to position 23 of the substrate (reaction product) [2] | acetylation of the hydroxy group of position 23 of the substrate (reaction product) [3] | acetylation of the hydroxy group of position 23 of the substrate (reaction product) [4] | acetylation of the hydroxy group of position 23 of the substrate (reaction product) [5] | introduction of a hydroxy group to position 23 of the substrate (reaction product) [6]
1 | C[C@H]1CC[C@@H]2[C@@H](C)[C@H]3[C@H](C[C@H]4[C@@H]5CC=C6C[C@@H](O[C@@H]7O[C@H](CO)[C@H](O)[C@H](O[C@@H]8O[C@H](CO)[C@@H](O)[C@H](O)[C@H]8O)[C@H]7O[C@@H]7O[C@@H](C)[C@H](O)[C@@H](O)[C@H]7O)CC[C@]6(C)[C@H]5CC[C@]34C)N2C1 [α-solanine] | a new reaction product was not obtained | a new reaction product was not obtained |  |  |  | 
2 | CC1CC(O)C2C(C)C3C(CC4C5CC=C6CC(OC7OC(CO)C(OC8OC(C)C(O)C(O)C8O)C(O)C7OC7OC(C)C(O)C(O)C7O)CCC6(C)C5CCC43C)N2C1 [leptinine I, 3β-[2-O,4-O-bis(α-L-rhamnopyranosyl)-β-D-glucopyranosyloxy]solanid-5-en-23β-ol] |  |  | a new reaction product was not obtained | a new reaction product was not obtained |  | 
3 | 23 hydroxy tomatine |  |  | a product to which an acetoxy group was introduced at position 23 was obtained | a product to which an acetoxy group was introduced at position 23 was obtained | a product to which an acetoxy group was introduced at position 23 was obtained | 
4 | C[C@H]1CC[C@]2(NC1)O[C@H]1C[C@H]3[C@@H]4CC[C@H]5C[C@@H](O[C@@H]6O[C@H](CO)[C@H](O[C@@H]7O[C@H](CO)[C@@H](O)[C@H](O[C@@H]8OC[C@@H](O)[C@H](O)[C@H]8O)[C@H]7O[C@@H]7O[C@H](CO)[C@@H](O)[C@H](O)[C@H]7O)[C@H](O)[C@H]6O)CC[C@]5(C)[C@H]4CC[C@]3(C)[C@H]1[C@@H]2C [α-tomatine] | a product to which a hydroxy group was introduced at position 23 was obtained | a product to which a hydroxy group was introduced at position 23 was obtained |  |  |  | a product to which a hydroxy group was introduced at position 23 can be obtained
5 | C[C@H]1C[C@H](O)[C@@H]2[C@@H](C)[C@H]3[C@H](C[C@H]4[C@@H]5CC=C6C[C@@H](O[C@@H]7O[C@H](CO)[C@H](O)[C@H](O[C@@H]8O[C@H](CO)[C@@H](O)[C@H](O)[C@H]8O)[C@H]7O[C@@H]7O[C@@H](C)[C@H](O)[C@@H](O)[C@H]7O)CC[C@]6(C)[C@H]5CC[C@]34C)N2C1 [leptinine II, 3β-[(3-O-β-D-glucopyranosyl-2-O-α-L-rhamnopyranosyl-β-D-galactopyranosyl)oxy]solanid-5-en-23β-ol] |  |  | a new reaction product was not obtained | a new reaction product was not obtained |  | 
